Publication PMC5762309 (Oncotarget, 2017)
Read-outs that look alike come from different tables or passages of the source.

What was measured:
BaF3 = assay: Anti-proliferation assay, parental BaF3 cells; type: cell-based; conditions: Mus musculus, 72 hours, CellTiter-Glo
Description: The KIT mutant isogenic BaF3 cells lines and Colo320DM cells were cultured in RPMI 1640 media (Corning, USA) with 10% fetal bovine serum (FBS) and supplemented with 2% L-glutamine 1% penicillin/streptomycin, the BaF3 cell line was cultured in RPMI 1640 media (Corning, USA) with 1% IL-3, 10% fetal bovine serum (FBS) and supplemented with 2% L-glutamine 1% penicillin/streptomycin. All cell lines were maintained in culture media at 37°C with 5% CO2.
Cells were grown in 96-well culture plates (2500/well). The compounds of various concentrations were added into the plates. Cell proliferation was determined after treatment with compounds for 72 hours. Cell viability was measured using the CellTiter–Glo assay (Promega, USA), according to the manufacturer’s instructions, and luminescence was measured in a multi-label reader (Envision, PerkinElmer, USA). Data were normalized to control groups (DMSO) and represented by the mean of three independent measurements with standard error <20%. GI50 values were calculated using Prism 5.0 (GraphPad Software, San Diego, CA).

468 kinases/mutants = assay: KINOMEScan kinome-wide selectivity S score; type: binding; conditions: 1 μM
Text: Then we used the DiscoverX’s KINOMEScan platform to further examine CHMFL-KIT-031’s kinome-wide selectivity profile. […] Besides the strong binding to V559D, it also bound strongly to KIT wt, L576P and A829P.

EGFR(E746-A750del) = molecular target: T1, EGFR(E746-A750del) (Homo sapiens, UniProt P00533, DEL746-750); assay: KINOMEScan; type: binding; conditions: Concentrations 1 mM
T1 construct: purchased DiscoverX KINOMEscan

[1] = molecular target: T2, EGFR(L747-S752del, P753S) (Homo sapiens, UniProt P00533, DEL747-752/P753S); assay: KINOMEScan; type: binding; set-up: dose or concentration left out as unconfirmed
T2 construct: purchased DiscoverX KINOMEscan

EGFR(L747-T751del,Sins) = assay: KINOMEScan; type: binding; set-up: dose or concentration left out as unconfirmed
FLT3(ITD,F691L) = assay: KINOMEScan; type: binding; set-up: dose or concentration left out as unconfirmed
[2] = molecular target: T3, JAK1(JH2domain-pseudokinase) (Homo sapiens, UniProt P23458); assay: KINOMEScan; type: binding; set-up: dose or concentration left out as unconfirmed
T3 construct: JAK1(JH2domain-pseudokinase); purchased DiscoverX KINOMEscan

[3] = molecular target: T4, JAK2(JH1domain-catalytic) (Homo sapiens, UniProt O60674); assay: KINOMEScan; type: binding; set-up: dose or concentration left out as unconfirmed
T4 construct: JAK2(JH1domain-catalytic); purchased DiscoverX KINOMEscan

LOK = molecular target: T5, LOK (Homo sapiens, UniProt O94804); assay: KINOMEScan; type: binding; set-up: dose or concentration left out as unconfirmed
T5 construct: purchased DiscoverX KINOMEscan

MAP4K3 = molecular target: T6, MAP4K3 (Homo sapiens, UniProt Q8IVH8); assay: KINOMEScan; type: binding; set-up: dose or concentration left out as unconfirmed
T6 construct: purchased DiscoverX KINOMEscan

MKK7 = molecular target: T7, MKK7 (Homo sapiens, UniProt O14733); assay: KINOMEScan; type: binding; set-up: dose or concentration left out as unconfirmed
T7 construct: purchased DiscoverX KINOMEscan

MLK3 = molecular target: T8, MLK3 (Homo sapiens, UniProt Q16584); assay: KINOMEScan; type: binding; set-up: dose or concentration left out as unconfirmed
T8 construct: purchased DiscoverX KINOMEscan

MST1 = molecular target: T9, MST1 (Homo sapiens, UniProt Q13043); assay: KINOMEScan; type: binding; set-up: dose or concentration left out as unconfirmed
T9 construct: purchased DiscoverX KINOMEscan

PFTK1 = molecular target: T10, PFTK1 (Homo sapiens, UniProt O94921); assay: KINOMEScan; type: binding; set-up: dose or concentration left out as unconfirmed
T10 construct: purchased DiscoverX KINOMEscan

PLK2 = molecular target: T11, PLK2 (Homo sapiens, UniProt Q9NYY3); assay: KINOMEScan; type: binding; set-up: dose or concentration left out as unconfirmed
T11 construct: purchased DiscoverX KINOMEscan

QSK = molecular target: T12, QSK (Homo sapiens, UniProt Q9Y2K2); assay: KINOMEScan; type: binding; set-up: dose or concentration left out as unconfirmed
T12 construct: purchased DiscoverX KINOMEscan

[4] = molecular target: T13, RSK4(Kin.Dom.2-C-terminal) (Homo sapiens, UniProt Q9UK32); assay: KINOMEScan; type: binding
T13 construct: RSK4(Kin.Dom.2-C-terminal); purchased DiscoverX KINOMEscan

[5] = molecular target: T14, TYK2(JH1domain-catalytic) (Homo sapiens, UniProt P29597); assay: KINOMEScan; type: binding; set-up: dose or concentration left out as unconfirmed
T14 construct: TYK2(JH1domain-catalytic); purchased DiscoverX KINOMEscan

ULK3 = molecular target: T15, ULK3 (Homo sapiens, UniProt Q6PHR2); assay: KINOMEScan; type: binding; set-up: dose or concentration left out as unconfirmed
T15 construct: purchased DiscoverX KINOMEscan

KIT T670I/V559D = KIT T670I/V559D (Homo sapiens, UniProt P10721, T670I/V559D); assay: KIT auto-phosphorylation in transformed BaF3 cells
KIT V559D/V654A = KIT V559D/V654A (Homo sapiens, UniProt P10721, V559D/V654A); assay: KIT auto-phosphorylation in transformed BaF3 cells; conditions: 2h
KIT A829P = KIT A829P (Homo sapiens, UniProt P10721, A829P); assay: KIT auto-phosphorylation in transformed BaF3 cells
KIT V559D [6] = molecular target: T16, KIT V559D (Homo sapiens, UniProt P10721, V559D); assay: KIT auto-phosphorylation in KIT V559D overexpressed Colo320DM cells; type: cell-based; set-up: expressed in transfected cells; host or cells: Colo320DM (transient)
Text: In order to better define CHMFL-KIT-031’s inhibitory effect against KIT V559D mutant, we then tested it with purified KIT wt/V559D kinase protein by ADP-Glo assay (Figure 2A). […] We also transformed and overexpressed KIT V559D transiently into Colo320DM cells which express wt KIT kinase and tested CHMFL-KIT-031’s inhibitory effects for the auto-phosphorylation of KIT Y703, 719 and Y823 sites.
KIT-V559D kinase domain coding sequence was inserted into a pMSCV puro vector (Clontech) that was modified by inserting a 3×FLAG sequence at the 3’ end of the multicloning sites. The vector was transiently transfected into Colo320DM cells with TransIN™EL transfection reagent.
Target sequence in this assay (P10721 546-976 V559D limits assumed): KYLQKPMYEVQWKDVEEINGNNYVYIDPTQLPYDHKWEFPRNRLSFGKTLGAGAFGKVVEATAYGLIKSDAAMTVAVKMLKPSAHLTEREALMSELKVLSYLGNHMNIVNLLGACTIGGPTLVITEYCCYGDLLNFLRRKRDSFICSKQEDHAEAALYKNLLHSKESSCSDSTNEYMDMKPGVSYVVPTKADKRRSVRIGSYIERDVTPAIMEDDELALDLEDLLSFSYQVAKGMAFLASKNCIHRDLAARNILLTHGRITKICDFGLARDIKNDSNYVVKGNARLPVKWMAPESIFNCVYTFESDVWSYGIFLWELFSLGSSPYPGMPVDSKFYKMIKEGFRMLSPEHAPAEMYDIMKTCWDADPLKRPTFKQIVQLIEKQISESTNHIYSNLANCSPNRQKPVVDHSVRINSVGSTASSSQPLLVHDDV

KIT V559D [7] = molecular target: T16, KIT V559D; assay: Kd determination by MST; type: binding; set-up: Kit V559D encoding residues 545-976 with His tag; His tag; made in house; host or cells: SF9 insect cells (baculovirus); conditions: purified protein

KIT V559D/V654A, sequence (P10721 546-976 V559D/V654A): as the sequence (P10721 546-976 V559D limits assumed) above, with V109A counted along it
KIT A829P, sequence (P10721 26-976 A829P): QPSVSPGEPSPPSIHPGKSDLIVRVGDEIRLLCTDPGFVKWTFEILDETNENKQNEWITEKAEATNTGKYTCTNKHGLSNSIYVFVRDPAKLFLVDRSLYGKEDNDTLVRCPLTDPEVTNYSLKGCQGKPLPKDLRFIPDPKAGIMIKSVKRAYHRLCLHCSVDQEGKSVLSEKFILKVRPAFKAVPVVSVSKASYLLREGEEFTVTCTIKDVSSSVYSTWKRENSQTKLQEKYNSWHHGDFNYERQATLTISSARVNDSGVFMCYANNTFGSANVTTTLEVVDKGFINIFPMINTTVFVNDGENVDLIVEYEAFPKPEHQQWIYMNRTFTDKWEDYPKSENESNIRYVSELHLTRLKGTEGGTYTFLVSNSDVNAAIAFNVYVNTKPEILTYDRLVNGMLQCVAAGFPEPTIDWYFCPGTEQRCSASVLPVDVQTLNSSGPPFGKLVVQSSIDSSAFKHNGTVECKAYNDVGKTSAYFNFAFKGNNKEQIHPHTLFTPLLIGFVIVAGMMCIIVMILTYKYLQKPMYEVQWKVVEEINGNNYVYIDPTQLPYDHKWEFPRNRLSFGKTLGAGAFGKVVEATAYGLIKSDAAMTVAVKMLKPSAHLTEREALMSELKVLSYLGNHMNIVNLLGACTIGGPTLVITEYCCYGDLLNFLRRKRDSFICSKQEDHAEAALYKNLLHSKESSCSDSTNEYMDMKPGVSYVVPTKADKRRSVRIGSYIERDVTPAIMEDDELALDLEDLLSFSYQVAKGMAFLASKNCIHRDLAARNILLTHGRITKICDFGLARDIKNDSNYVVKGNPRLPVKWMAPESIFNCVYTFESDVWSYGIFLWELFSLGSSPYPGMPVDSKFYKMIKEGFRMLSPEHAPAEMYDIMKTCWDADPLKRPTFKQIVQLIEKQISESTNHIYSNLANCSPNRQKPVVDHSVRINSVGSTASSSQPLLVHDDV
KIT T670I/V559D, sequence (P10721 26-976 V559D/T670I): as the sequence (P10721 26-976 A829P) above, with V534D, T645I, P804A counted along it
T5 sequence (O94804 whole entry): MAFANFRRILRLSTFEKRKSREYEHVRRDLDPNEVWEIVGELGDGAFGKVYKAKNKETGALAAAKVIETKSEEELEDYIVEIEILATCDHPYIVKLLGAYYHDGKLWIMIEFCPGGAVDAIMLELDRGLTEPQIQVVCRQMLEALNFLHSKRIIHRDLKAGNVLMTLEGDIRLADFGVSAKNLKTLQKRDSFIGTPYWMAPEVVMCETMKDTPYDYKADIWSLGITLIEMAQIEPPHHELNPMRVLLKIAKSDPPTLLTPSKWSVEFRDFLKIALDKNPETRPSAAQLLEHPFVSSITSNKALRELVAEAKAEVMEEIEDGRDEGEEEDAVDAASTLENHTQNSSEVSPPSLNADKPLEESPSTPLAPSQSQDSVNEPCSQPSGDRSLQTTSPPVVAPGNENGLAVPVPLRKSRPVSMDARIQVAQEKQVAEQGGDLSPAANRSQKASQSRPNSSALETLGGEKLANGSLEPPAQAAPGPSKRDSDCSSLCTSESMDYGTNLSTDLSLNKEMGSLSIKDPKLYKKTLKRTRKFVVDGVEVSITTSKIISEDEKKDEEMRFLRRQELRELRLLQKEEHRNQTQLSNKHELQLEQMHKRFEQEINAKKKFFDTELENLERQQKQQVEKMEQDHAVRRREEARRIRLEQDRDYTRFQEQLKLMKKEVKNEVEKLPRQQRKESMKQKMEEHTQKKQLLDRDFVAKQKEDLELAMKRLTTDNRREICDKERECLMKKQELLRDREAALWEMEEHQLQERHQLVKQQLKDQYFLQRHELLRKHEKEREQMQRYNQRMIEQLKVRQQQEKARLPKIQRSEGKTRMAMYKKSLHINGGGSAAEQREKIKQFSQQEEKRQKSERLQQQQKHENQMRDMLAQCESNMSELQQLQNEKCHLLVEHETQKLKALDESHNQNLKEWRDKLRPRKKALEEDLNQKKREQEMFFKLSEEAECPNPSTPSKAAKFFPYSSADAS
T4 sequence (O60674 849-1132 limits assumed): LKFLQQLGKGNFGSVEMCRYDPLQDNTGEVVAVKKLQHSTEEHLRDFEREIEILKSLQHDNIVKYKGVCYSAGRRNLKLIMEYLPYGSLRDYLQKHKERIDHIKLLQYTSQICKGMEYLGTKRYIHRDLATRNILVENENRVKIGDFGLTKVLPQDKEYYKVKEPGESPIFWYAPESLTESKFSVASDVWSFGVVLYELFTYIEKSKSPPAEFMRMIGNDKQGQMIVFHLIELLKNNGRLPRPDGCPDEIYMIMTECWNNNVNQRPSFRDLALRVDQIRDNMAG
T12 sequence (Q9Y2K2 whole entry): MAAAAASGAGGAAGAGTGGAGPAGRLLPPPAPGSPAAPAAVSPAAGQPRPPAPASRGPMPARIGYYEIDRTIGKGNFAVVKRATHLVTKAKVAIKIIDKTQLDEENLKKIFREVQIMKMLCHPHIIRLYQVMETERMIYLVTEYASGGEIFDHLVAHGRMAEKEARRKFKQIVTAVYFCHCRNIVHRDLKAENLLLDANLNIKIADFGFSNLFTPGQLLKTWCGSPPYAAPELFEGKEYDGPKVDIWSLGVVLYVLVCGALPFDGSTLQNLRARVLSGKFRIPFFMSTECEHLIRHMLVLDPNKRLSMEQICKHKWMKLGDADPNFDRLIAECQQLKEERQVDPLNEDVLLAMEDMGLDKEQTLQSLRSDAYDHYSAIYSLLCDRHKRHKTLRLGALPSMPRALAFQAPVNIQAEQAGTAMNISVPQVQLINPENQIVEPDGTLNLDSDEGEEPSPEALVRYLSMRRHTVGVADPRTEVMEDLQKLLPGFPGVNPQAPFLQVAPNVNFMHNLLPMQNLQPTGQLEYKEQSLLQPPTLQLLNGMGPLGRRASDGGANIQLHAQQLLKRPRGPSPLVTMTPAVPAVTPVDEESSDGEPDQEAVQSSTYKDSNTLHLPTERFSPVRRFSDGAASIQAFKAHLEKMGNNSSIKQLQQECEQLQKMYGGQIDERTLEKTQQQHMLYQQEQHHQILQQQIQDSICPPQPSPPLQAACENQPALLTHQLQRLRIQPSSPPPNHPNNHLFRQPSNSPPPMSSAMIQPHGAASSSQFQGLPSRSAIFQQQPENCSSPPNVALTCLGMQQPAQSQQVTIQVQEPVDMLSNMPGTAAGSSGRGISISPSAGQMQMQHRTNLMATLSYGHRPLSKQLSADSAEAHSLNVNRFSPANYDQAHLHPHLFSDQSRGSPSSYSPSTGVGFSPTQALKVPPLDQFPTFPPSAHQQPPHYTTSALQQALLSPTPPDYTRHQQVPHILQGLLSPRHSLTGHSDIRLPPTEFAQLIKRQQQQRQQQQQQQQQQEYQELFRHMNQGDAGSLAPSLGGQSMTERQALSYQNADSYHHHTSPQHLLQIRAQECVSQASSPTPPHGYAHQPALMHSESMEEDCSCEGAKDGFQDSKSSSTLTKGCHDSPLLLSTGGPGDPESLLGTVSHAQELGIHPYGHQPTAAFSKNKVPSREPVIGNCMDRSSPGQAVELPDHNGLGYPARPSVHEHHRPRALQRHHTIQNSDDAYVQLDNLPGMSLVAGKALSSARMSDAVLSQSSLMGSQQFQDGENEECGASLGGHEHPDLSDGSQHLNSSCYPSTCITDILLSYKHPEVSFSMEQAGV
T11 sequence (Q9NYY3 whole entry): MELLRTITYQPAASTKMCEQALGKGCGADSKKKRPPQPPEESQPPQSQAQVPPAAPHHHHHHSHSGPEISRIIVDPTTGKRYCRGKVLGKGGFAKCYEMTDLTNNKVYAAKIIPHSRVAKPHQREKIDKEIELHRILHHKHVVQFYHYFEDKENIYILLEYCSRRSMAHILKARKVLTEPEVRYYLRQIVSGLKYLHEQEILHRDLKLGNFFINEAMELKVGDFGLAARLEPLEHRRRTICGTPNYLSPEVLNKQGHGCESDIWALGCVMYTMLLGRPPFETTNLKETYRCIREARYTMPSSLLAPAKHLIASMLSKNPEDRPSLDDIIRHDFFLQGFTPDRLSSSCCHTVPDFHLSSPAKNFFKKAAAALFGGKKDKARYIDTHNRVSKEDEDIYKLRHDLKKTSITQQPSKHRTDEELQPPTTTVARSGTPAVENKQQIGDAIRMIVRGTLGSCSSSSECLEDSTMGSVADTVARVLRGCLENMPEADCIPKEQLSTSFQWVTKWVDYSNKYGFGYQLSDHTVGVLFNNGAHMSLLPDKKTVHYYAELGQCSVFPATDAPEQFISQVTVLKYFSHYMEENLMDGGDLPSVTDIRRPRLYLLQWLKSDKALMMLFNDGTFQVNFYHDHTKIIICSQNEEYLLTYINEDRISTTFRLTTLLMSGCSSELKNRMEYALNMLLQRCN
T1 sequence (P00533 with tags, fused parts or gaps DEL746-750 limits assumed): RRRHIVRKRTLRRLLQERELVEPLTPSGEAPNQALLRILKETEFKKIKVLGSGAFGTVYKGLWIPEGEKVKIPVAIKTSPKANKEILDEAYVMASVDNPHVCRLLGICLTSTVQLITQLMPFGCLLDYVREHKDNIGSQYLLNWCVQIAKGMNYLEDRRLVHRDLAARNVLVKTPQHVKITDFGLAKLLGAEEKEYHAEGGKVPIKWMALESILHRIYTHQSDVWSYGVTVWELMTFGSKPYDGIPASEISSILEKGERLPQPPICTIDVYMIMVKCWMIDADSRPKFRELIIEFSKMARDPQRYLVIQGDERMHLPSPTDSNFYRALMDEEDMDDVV

SMILES: COc1cc(C(=O)NCC(=O)Nc2ccc3c(/C=C/c4ccccn4)n[nH]c3c2)cc(OC)c1OC [CHMFL-KIT-031]
- GI50 (BaF3): > 10000 nM
- S score (1) (468 kinases/mutants): 0.01
- KINOMEScan profiling value (EGFR(E746-A750del)): 100
- KINOMEScan profiling value [1]: 100
- KINOMEScan profiling value (EGFR(L747-T751del,Sins)): 100
- KINOMEScan profiling value (FLT3(ITD,F691L)): 91
- KINOMEScan profiling value [2]: 85
- KINOMEScan profiling value [3]: 100
- KINOMEScan profiling value (LOK): 96
- KINOMEScan profiling value (MAP4K3): 100
- KINOMEScan profiling value (MKK7): 100
- KINOMEScan profiling value (MLK3): 100
- KINOMEScan profiling value (MST1): 89
- KINOMEScan profiling value (PFTK1): 100
- KINOMEScan profiling value (PLK2): 100
- KINOMEScan profiling value (QSK): 82
- KINOMEScan profiling value [4]: 100
- KINOMEScan profiling value [5]: 100
- KINOMEScan profiling value (ULK3): 89
- EC50 (KIT T670I/V559D): > 10000 nM
- EC50 (KIT T670I/V559D; read-out: EC50 pY719 auto-phosphorylation, KIT T670I/V559D transformed BaF3 cells, 2h): > 10000 nM
- EC50 (KIT T670I/V559D; read-out: EC50 pY823 auto-phosphorylation, KIT T670I/V559D transformed BaF3 cells, 2h): > 10000 nM
- EC50 (KIT V559D/V654A; EC50 pY703 auto-phosphorylation): 5600 nM
- EC50 (KIT V559D/V654A; EC50 pY719 auto-phosphorylation): 863 nM
- EC50 (KIT V559D/V654A; EC50 pY823 auto-phosphorylation): 5400 nM
- EC50 (KIT A829P): > 10000 nM
- EC50 (KIT A829P; read-out: EC50 pY719 auto-phosphorylation, KIT A829P transformed BaF3 cells, 2h): > 10000 nM
- EC50 (KIT A829P; read-out: EC50 pY823 auto-phosphorylation, KIT A829P transformed BaF3 cells, 2h): > 10000 nM
- EC50 (KIT V559D [6]; COLO 320DM-KIT-V559D, read-out: EC50 P-CKIT Y719): 239 nM
- EC50 (KIT V559D [6]; COLO 320DM-KIT-V559D, read-out: EC50 P-CKIT Y823): 147 nM
- EC50 (KIT V559D [6]; Colo320DM cells overexpressing KIT V559D, range over the sites, read-out: EC50 phosphorylation of KIT V559D mutant (Y703, 719 and Y823 sites)): 176 to 339 nM
- selectivity compared to KIT wt at the corresponding phosphorylation sites (KIT V559D [6]; Colo320DM cells, EC50): over 10 fold
- EC50 (KIT V559D [6]; in cell, KIT V559D, read-out: EC50 pY703): 176 nM
- Kd (KIT V559D [7]): 266 nM
